pIC50: −log10 of the molar value. Where a name gives a salt, the structure may show the parent alone. Read-outs that look alike come from different tables or passages of the source.
Assays:
Solubility in water = format: physicochemical
[1] = Vapor sorption analysis (DVS), hygroscopicity; format: physicochemical
mTOR = biological target: T1, mTOR (Homo sapiens, UniProt P42345); test: mTOR cell-based mechanistic assay: inhibition of phosphorylation of 4E-BP1 (T37/46) in MDA-MB-231 cells; details: 3 h treatment
T1 construct: endogenous in cells; host or cells: MDA-MB-231 cells
Description: MDA-MB-231 cells were plated in 96 well plates at 2×10^4 cells/well in 90 uL of Complete growth medium and incubated at 37° C. overnight in a CO2 incubator. […] Cell lysates' were transferred to a 96-well plate coated with 4E-BP1 antibodies to capture phospho-4E-BP1 (T37/46) and incubated overnight at 4° C. The amount of phospho-4E-BP1 in each well is further measured by incubating the wells with anti-rabbit phospho-4E-BP1 (T37/46) antibodies and a corresponding goat anti-rabbit IgG conjugated to HRP. The amount of HRP present in each well is measured by a chemiluminescence method, which corresponds to amount of phospho-4E-BP1 in each well. IC50 values were determined using a 6-point dose response curve.

[2] = Stability at 40° C. and 75% RH; format: physicochemical; details: 30 days at 40° C. and 75% RH

With `COc1cccc2cc(-c3nc([C@H]4CC[C@H](C(=O)O)CC4)n4ncnc(N)c34)[nH]c12` [Example 3, trans-4-[4-amino-5-(7-methoxy-1H-indol-2-yl)imidazo[5,1-f][1,2,4]triazin-7-yl]cyclohexanecarboxylic acid sodium salt] the solubility in water (Solubility in water; sodium salt) was greater than 30 mg/mL.

With “trans-4-[4-amino-5-(7-methoxy-1H-indol-2-yl)imidazo[5,1-f][1,2,4]triazin-7-yl]cyclohexane carboxylic acid calcium salt [Example 2]” the “hygroscopicity, weight gain (DVS)” value ([1]; from 0 to 95% RH) was 35%.

With `COc1cccc2cc(-c3nc([C@H]4CC[C@H](C(=O)O)CC4)n4ncnc(N)c34)[nH]c12` [trans-4-[4-amino-5-(7-methoxy-1H-indol-2-yl)-imidazo[5,1-f][1,2,4]triazin-7-yl]cyclohexanecarboxylic acid] the pIC50 (mTOR) was roughly 6.00.

For `COc1cccc2cc(-c3nc([C@H]4CC[C@H](C(=O)O)CC4)n4ncnc(N)c34)[nH]c12` [Example 1, trans-4-[4-amino-5-(7-methoxy-1H-indol-2-yl)imidazo[5,1-f][1,2,4]triazin-7-yl]cyclohexane carboxylic acid tromethamine salt], the solubility in water (Solubility in water) was “approximately 6 mg/mL”, the “stability (degradation)” value [2] was “no significant degradation” and the “hygroscopicity (DVS)” value ([1]; at 90-95% RH) was 2-4%.
